Data from publication PMC8528861, “Structural and functional analysis of target recognition by the lymphocyte adaptor protein LNK” (Nature Communications, 2021).
Read-outs that look alike come from different tables or passages of the source. Where a SMILES comes first, the peptide text is derived from it. [ ]: non-standard residue; d: D form. pY = N[C@@H](Cc1ccc(OP(=O)(O)O)cc1)C(=O)O

Target: T1, LNK SH2 domain (Mus musculus, UniProt O09039)
T1 construct: DNA encoding the mouse LNK SH2 domain (residues 324–446) and an N-terminal NusA; NusA (N, cleaved yes); made in house; host or cells: E. coli (tuner (DE3), BL21(DE3) or C43)
T1 sequence (O09039 324-446): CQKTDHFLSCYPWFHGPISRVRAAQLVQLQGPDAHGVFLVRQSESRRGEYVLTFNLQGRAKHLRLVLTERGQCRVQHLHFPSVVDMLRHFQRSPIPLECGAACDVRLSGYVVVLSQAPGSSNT
Experiment: SPR competition assay (immobilised IL6ST pY757 peptide)
Assay type: binding
Details: for fold decrease in affinity: mutant vs WT JAK2 pY813 peptide
Protocol: SH2 domains typically bind ligands with a specific preference for amino acids at the −2 to +5 positions, relative to phosphotyrosine. […] To determine the contribution of individual residues, we made a series of mutations within the JAK2 phosphopeptide, and measured their affinity for the LNK SH2 domain via a surface plasmon resonance (SPR) competition assay (Fig. 3). The LNK SH2 domain was incubated with increasing concentrations of mutant JAK2 pY813 peptides before being passed over a chip coated with an immobilised low affinity phosphopeptide derived from a site on the intracellular domain of the IL-6 receptor, IL6ST. […] The +2 residue was not mutated as the structure indicates its sidechain points towards solvent.
The LNK SH2 domain has been proposed to interact with a suite of phosphorylated sites on various signalling proteins[16]–[19],[32]. […] In addition, binding to the activation loops of JAK2 and IRK, and pY785 of JAK3 were also examined. […] Given that SH2 domains will bind to most phosphorylated sequences to some degree, in line with the literature on SH2 domains and their targets[33] we applied a threshold cut-off of 2000 nM, where an IC50 over this value indicates a physiologically irrelevant interaction.
SPR competition assays were performed on either a Biacore 4000 or 200 (GE Healthcare) in 10 mM HEPES (pH 7.4), 150 mM NaCl, 3.4 mM EDTA, 0.005% Tween 20 using a streptavidin coated chip and were regenerated in 50 mM NaOH, 1 M NaCl. A biotinylated peptide representing the IL6ST pY757 sequence was immobilised to the chip by passing over 1 μg/mL of peptide dissolved in 10 mM HEPES pH 7.4, 150 mM NaCl, 3.4 mM EDA, 0.005% Tween 20. 0.1–0.5 μM of WT LNK SH2 domain was pre-incubated with 2, 1, 0.5, 0.25, 0.125 or 0 mM phosphopeptides before being flowed over the chip for 240–720 seconds at 10–30 μL/min. Data was analysed using Prism, the response of LNK in the presence of the peptide was normalised to an LNK only control and then fitted as an IC50 curve via non-linear regression.

[1] = phosphopeptide competition assay, mean of at least two technical replicates from two, three or four independent experiments, read-out: IC50

With `CC(C)C[C@H](NC(=O)[C@H](CCCNC(=N)N)NC(=O)[C@H](Cc1ccc(OP(=O)(O)O)cc1)NC(=O)[C@H](CC(=O)O)NC(=O)[C@@H]1CCCN1C(=O)[C@@H](NC(=O)[C@@H](N)Cc1ccccc1)[C@@H](C)O)C(=O)N[C@@H](CC(C)C)C(=O)N[C@H](C(=O)N[C@@H](CCC(=O)O)C(=O)N[C@@H](CC(N)=O)C(=O)N[C@@H](CC(=O)O)C(=O)O)[C@@H](C)O` [+1R] (H-FTPD[pY]RLLTEND-OH) the “fold decrease in affinity” value was > 80 fold.

In the case of `CC(C)C[C@H](NC(=O)[C@H](CCC(=O)O)NC(=O)[C@H](Cc1ccc(OP(=O)(O)O)cc1)NC(=O)[C@H](CC(=O)O)NC(=O)[C@@H]1CCCN1C(=O)[C@@H](NC(=O)[C@@H](N)Cc1ccccc1)[C@@H](C)O)C(=O)N[C@@H](Cc1ccccc1)C(=O)N[C@H](C(=O)N[C@@H](CCC(=O)O)C(=O)N[C@@H](CC(N)=O)C(=O)N[C@@H](CC(=O)O)C(=O)O)[C@@H](C)O` [+3F] (H-FTPD[pY]ELFTEND-OH; N-terminus and C-terminus assumed), the “fold decrease in affinity” value is reported as ~ 25 fold.

`CC(C)C[C@H](NC(=O)[C@H](CS)NC(=O)CNC(=O)[C@H](CC(N)=O)NC(=O)[C@H](CCC(N)=O)NC(=O)[C@H](Cc1ccc(OP(=O)(O)O)cc1)NC(=O)[C@H](CC(C)C)NC(=O)[C@H](Cc1c[nH]c2ccccc12)NC(=O)[C@H](CC(C)C)NC(=O)[C@@H](N)CCC(N)=O)C(=O)N[C@@H](Cc1c[nH]c2ccccc12)C(=O)N[C@@H](Cc1c[nH]c2ccccc12)C(=O)O` [EPOR pY309] (H-QLWL[pY]QNGCLWW-OH; N-terminus and C-terminus assumed) was tested, and the IC50 [1] was > 10 µM.

In the case of `NC(=O)C[C@H](NC(=O)[C@H](CCC(=O)O)NC(=O)[C@H](Cc1ccc(O)cc1)NC(=O)[C@@H]1CCCN1C(=O)[C@H](CC(N)=O)NC(=O)[C@H](CO)NC(=O)[C@H](Cc1ccc(OP(=O)(O)O)cc1)NC(=O)[C@@H]1CCCN1C(=O)CNC(=O)[C@H](CC(=O)O)NC(=O)[C@@H](N)CO)C(=O)N[C@@H](CO)C(=O)O` [EPOR pY485] (H-SDGP[pY]SNPYENS-OH; N-terminus and C-terminus assumed), the IC50 [1] is reported as > 10 µM.

For `CSCC[C@H](NC(=O)[C@H](CCC(N)=O)NC(=O)[C@H](CC(C)C)NC(=O)[C@H](CCC(N)=O)NC(=O)[C@H](CO)NC(=O)[C@H](CCC(=O)O)NC(=O)[C@H](Cc1ccc(OP(=O)(O)O)cc1)NC(=O)[C@H](CCCNC(=N)N)NC(=O)[C@H](Cc1ccccc1)NC(=O)[C@H](CCC(N)=O)NC(=O)[C@H](CCCCN)NC(=O)[C@H](CCCCN)NC(=O)[C@@H](N)Cc1ccc(O)cc1)C(=O)O` [FLT3 pY572] (H-YKKQFR[pY]ESQLQM-OH; N-terminus and C-terminus assumed), the IC50 [1] was > 10 µM.

In the case of `C[C@@H](O)[C@H](NC(=O)[C@@H](N)CCC(=O)O)C(=O)N[C@@H](CC(=O)O)C(=O)N[C@@H](Cc1ccc(OP(=O)(O)O)cc1)C(=O)N[C@@H](Cc1ccc(OP(=O)(O)O)cc1)C(=O)N[C@@H](CCCNC(=N)N)C(=O)N[C@@H](CCCCN)C(=O)NCC(=O)NCC(=O)N[C@@H](CCCCN)C(=O)NCC(=O)O` [IRK pY1445/pY1446] (H-ETD[pY][pY]RKGGKG-OH; N-terminus and C-terminus assumed), the IC50 [1] is reported as > 10 µM.

In the case of `CC[C@H](C)[C@H](NC(=O)[C@H](C)N)C(=O)N[C@@H](CCC(=O)O)C(=O)N[C@H](C(=O)N[C@@H](CC(=O)O)C(=O)N[C@@H](CCCCN)C(=O)N[C@@H](CCC(=O)O)C(=O)N[C@@H](Cc1ccc(OP(=O)(O)O)cc1)C(=O)N[C@@H](Cc1ccc(OP(=O)(O)O)cc1)C(=O)N[C@@H](CCCCN)C(=O)N[C@H](C(=O)N[C@@H](CCCCN)C(=O)N[C@@H](CCC(=O)O)C(=O)N1CCC[C@H]1C(=O)NCC(=O)O)C(C)C)[C@@H](C)O` [JAK2 pY1007/pY1008] (H-AIETDKE[pY][pY]KVKEPG-OH; N-terminus and C-terminus assumed), the IC50 [1] is reported as > 10 µM.

`CC[C@H](C)[C@H](NC(=O)[C@H](C)N)C(=O)N[C@@H](CCC(=O)O)C(=O)N[C@H](C(=O)N[C@@H](CC(=O)O)C(=O)N[C@@H](CCCCN)C(=O)N[C@@H](CCC(=O)O)C(=O)N[C@@H](Cc1ccc(OP(=O)(O)O)cc1)C(=O)N[C@@H](Cc1ccc(O)cc1)C(=O)N[C@@H](CCCCN)C(=O)N[C@H](C(=O)N[C@@H](CCCCN)C(=O)N[C@@H](CCC(=O)O)C(=O)N1CCC[C@H]1C(=O)NCC(=O)O)C(C)C)[C@@H](C)O` [JAK2 pY1007] (H-AIETDKE[pY]YKVKEPG-OH; N-terminus and C-terminus assumed) was tested, and the IC50 [1] was > 10 µM.

`CC(C)C[C@H](NC(=O)[C@H](C)NC(=O)[C@H](C)NC(=O)[C@@H](NC(=O)[C@H](CC(=O)O)NC(=O)[C@H](CCCNC(=N)N)NC(=O)[C@H](CC(C)C)NC(=O)[C@H](Cc1ccc(OP(=O)(O)O)cc1)NC(=O)[C@H](CCC(N)=O)NC(=O)CNC(=O)[C@H](CC(C)C)NC(=O)[C@@H](N)C(C)C)[C@@H](C)O)C(=O)O` [MPL pY552] (H-VLGQ[pY]LRDTAAL-OH; N-terminus and C-terminus assumed) was tested, and the IC50 was > 10 µM.

With `CSCC[C@H](NC(=O)[C@H](CC(=O)O)NC(=O)[C@H](CCC(N)=O)NC(=O)[C@H](C)N)C(=O)N[C@@H](Cc1ccc(OP(=O)(O)O)cc1)C(=O)N[C@@H](CCCNC(=N)N)C(=O)N[C@@H](CCCNC(=N)N)C(=O)N[C@@H](CC(C)C)C(=O)N[C@@H](CCC(N)=O)C(=O)N1CCC[C@H]1C(=O)N[C@@H](CO)C(=O)N[C@@H](CS)C(=O)O` [MPL pY591] (H-AQDM[pY]RRLQPSC-OH; N-terminus and C-terminus assumed) the IC50 [1] was > 10 µM.

With `CC(C)C[C@H](NC(=O)[C@@H]1CCCN1C(=O)[C@H](CC(C)C)NC(=O)[C@H](Cc1ccc(OP(=O)(O)O)cc1)NC(=O)[C@H](CO)NC(=O)[C@H](Cc1c[nH]cn1)NC(=O)[C@H](CC(N)=O)NC(=O)[C@H](C)N)C(=O)N[C@@H](CO)C(=O)N[C@@H](Cc1ccc(O)cc1)C(=O)N[C@@H](Cc1c[nH]c2ccccc12)C(=O)N[C@@H](CCC(N)=O)C(=O)O` [MPL pY626] (H-ANHS[pY]LPLSYWQ-OH) the IC50 was 4.89 µM.

With `CC(C)C[C@H](NC(=O)[C@@H]1CCCN1C(=O)[C@@H](N)CC(C)C)C(=O)N[C@@H](CO)C(=O)N[C@@H](Cc1ccc(OP(=O)(O)O)cc1)C(=O)N[C@@H](Cc1c[nH]c2ccccc12)C(=O)N[C@@H](CCC(N)=O)C(=O)N[C@@H](CCC(N)=O)C(=O)N1CCC[C@H]1C(=O)O` [MPL pY631] (H-LPLS[pY]WQQP-OH; N-terminus and C-terminus assumed) the IC50 [1] was > 10 µM.

Molecule `CC[C@H](C)[C@H](NC(=O)[C@H](Cc1ccc(OP(=O)(O)O)cc1)NC(=O)[C@H](CCC(=O)O)NC(=O)[C@H](Cc1c[nH]cn1)NC(=O)CN)C(=O)N[C@@H](Cc1ccc(O)cc1)C(=O)N[C@H](C(=O)N[C@@H](CC(=O)O)C(=O)N1CCC[C@H]1C(=O)O)C(C)C` [PDGFR pY572] (H-GHE[pY]IYVDP-OH) has an IC50 [1] of 3.81 µM.

In the case of `CC(C)C[C@H](NC(=O)[C@H](CC(N)=O)NC(=O)[C@@H](NC(=O)[C@H](Cc1ccc(OP(=O)(O)O)cc1)NC(=O)[C@H](CC(=O)O)NC(=O)[C@H](CCCNC(=N)N)NC(=O)[C@@H](N)CCC(=O)O)[C@@H](C)O)C(=O)N1CCC[C@H]1C(=O)N[C@@H](CO)C(=O)O` [c-FMS pY923] (H-ERD[pY]TNLPS-OH; N-terminus and C-terminus assumed), the IC50 [1] is reported as > 10 µM.

Work on `CC[C@H](C)[C@H](NC(=O)[C@H](Cc1ccc(O)cc1)NC(=O)[C@@H](NC(=O)[C@H](Cc1ccc(OP(=O)(O)O)cc1)NC(=O)[C@H](CC(N)=O)NC(=O)[C@H](CC(N)=O)NC(=O)CN)C(C)C)C(=O)N[C@@H](CC(=O)O)C(=O)N1CCC[C@H]1C(=O)O` [c-KIT pY568] (H-GNN[pY]VYIDP-OH) yielded an IC50 [1] of 1.93 µM.
